# Measured values published in patent US20080219998A1, “Anti-Thrombotic Agents” (priority 2001, published 2008).
# No end group written: not given here.
# Test system: intrinsic pathway
# Test: activated partial thromboplastin time (APTT) screening coagulation assay
# Format: biochemical
# Conditions: phage expressing the peptide tested; APTT is a standard screening marker of the activity of the intrinsic pathway
# From the text: While in vitro or animal testing are not acceptable tools for establishing the safety thus usefulness of drugs, such as anticoagulants, screening compounds for specificity towards factor XI, thus potential utility in the clinic, is an necessary intermediate step in practicing this invention. In such an effort, several FXI-specific peptides have been created using standard phage display technology. […] One example of such a phage is given here. Amino acid sequencing of the peptide expressed by this phage yields Gln-Lys-Met-Gln-His-Gly-Ile-Trp-Asn-Arg-Thr-Ala using standard technology. The phage expressing the peptide is then tested in screening coagulation assays, such as activated partial thromboplastin time (APTT) and prothrombin time (PT). […] This peptide, and other inhibitory compounds with FXI specificity, such as Gln-Gln-Val-Ala-Asn-Trp-Ser-Met-Ser-Pro-Ala, are considered only as examples of intermediate steps in identifying and preparing compounds of this invention that can exclusively reduce FXI activity. Other methods of screening exist.
sequence,measurement,value
"QKMQHGIWNRTA [FXI-specific peptide from phage display, tested as the phage expressing it]",prolongation of APTT,significant prolongation
